Source: patent publication US5434132A, “Neuropeptide antagonists” (Imperial Cancer Research Technology, Ltd., priority 1988, dated 1995)
Like-named read-outs stand apart in the source and are kept apart here. Non-standard residues stand in square brackets, D forms with d. Residues, ends and D or L forms follow the SMILES beside them. No end group written: not given here. *: point of attachment. X1 = CC(C)C[C@@H](CN[C@@H](CC(C)C)C(N)=O)N*; pGlu = O=C1CC[C@@H](C(=O)O)N1

What was measured:
Mr 75,000-85,000 protein = molecular target: T1, Mr 75,000-85,000 protein (Mus musculus, UniProt P21729); experiment: Chemical cross-linking (EGS) of 125I-GRP to the Mr 75,000-85,000 protein in Swiss 3T3 membranes; type: binding, murine; details: 10 min, read-out: 125I-GRP affinity labelling of the Mr 75,000-85,000 protein
T1 construct: Membrane protein (150 μg) prepared from Swiss 3T3 cells as described above; endogenous in cells; host or cells: Swiss 3T3 cells; membrane-enriched fraction prepared with 5 mM Mg2+
Experimental: BSA was omitted from all solutions used in the cross-linking studies. At the end of the incubation the membranes were centrifuged at 1000 rpm for 1 minute in a MSE microfuge at room n temperature. The pellets were then resuspended in cross-linking medium containing 4 mM of the cross-linking reagent (EGS) and incubated at 37° C. or 15° C. for 5 minutes or 15 minutes respectively. The reaction was terminated by centrifugation for 1 minute followed by one wash with cross-linking medium and centrifugation. Samples were solubilised in 0.20 ml of 2× sample buffer, (0.2 M Tris-HCl pH 6.8, 10% (w/v) glycerol, 6% sodium dodecyl sulphate (SDS) (w/v), 4% β-mercaptoethanol (v/v), and 2 mM EDTA), immediately heated to 100° C. for 10 minutes and analysed by one dimensional electrophoresis.
SDS-Polyacrylaaide Gel glectrophoresis: Slab gel electrophoresis was performed using 8% acrylamide in the separating gel and 4% in the stacking gel and 0.1% SDS (37). After electrophoresis gels were stained, desrained and dried down onto paper for autoradiography with Fuji x-ray film. Dried gels were exposed for 2-4 days at -70° C. Autoradiograms were scanned using an LKB ultrascan XL densitometer; and the incorporation of radioactivity into the Mr 75,000-85,000 band was quantified using the Ultroscan XL internal digital integrator.
Following incubation at 37° C. for 10 minutes the membranes were pelleted by centrifugation and chemical cross-linking carried out as described in "Experimental Procedures" using 4 mM EGS. The samples were analyzed by SDS-PAGE and scanning densitometry of the autoradiograms as described in "Experimental Procedures".

bombesin/GRP receptor [1] = molecular target: T2, bombesin/GRP receptor (Mus musculus, UniProt P21729); experiment: 125I-GRP binding to membrane preparations of Swiss 3T3 cells; set-up: species or system murine; details: addition at 1μM; 0.5 nM 125I-GRP, 37° C., 10 minutes; None 305 ± 9; mean±SEM, n=3
T2 construct: Membrane protein (150 μg) prepared from Swiss 3T3 cells as described above; endogenous in cells; host or cells: Swiss 3T3 cells; membrane-enriched fraction prepared with 5 mM Mg2+
Experimental: Membrane preparation: Cultures in roller bottles were washed twice with 150 ml phosphate buffered saline (PBS) (0.14M NaCl, 5 mM KCl, 0.01M Na2 HPO4, 1.8 mM KH2 PO4; pH 7.2) at room temperature. The cells were then harvested at 4° C. by scraping into ice cold PBS containing 5 mM MgCl2, 1 mM [ethylenebis(oxyethylenenitrilo)]tetraacetic acid (EGTA), 1 mg/ml bacitracin, 10 ug/ml aprotonin, 1 mg/ml soybean trypsin inhibitor and 50 μM phenylmethylsulphonyl fluoride. All subsequent steps were carried out at 4° C. The cells were pelleted by centrifugation at 750 x g for 10 minutes and resuspended 5×10^6 /ml in solution A containing 50 mM 4-(2-Hydroxyethyl)-1-piperazineethanesulfonic acid (Hepes), 5 mM MgCl2, 1 mM EGTA, 1 mg/ml bacitracin, 10 μg/ml aprotonin, 1 mg/ml soybean trypsin inhibitor and 50 μM phenylmethylsulfonyl fluoride, adjusted to pH 7.4 with NaOH at 4° C. Cells were then disrupted using a Dounce homogeniser (A pestle) 75 strokes. The homogenate was centrifuged at 500 x g for 10 minutes to remove nuclear material and intact cells and the supernatant was centrifuged again at 30000 x g for 30 minutes. The resulting pellet, representing a membrane-enriched preparation was resuspended at a protein concentration of 5 to 10 mg/ml in solution A and stored in liquid nitrogen. For experiments, membranes were thawed and diluted to a concentration of 1 mg/ml with solution A.
Receptor binding assay: Binding assays were carried out in a total volume of 100 ul in binding medium containing 50 mM Hepes, 5 mM MgCl2, 1 mg/ml bacitracin and 1% bovine serum albumin (BSA), adjusted to pH 7.4 with NaOH, unless otherwise indicated. […] Non-specific binding was subtracted from the total binding to obtain specific binding. The membranes were incubated for either 10 minutes at 37° C. or 30 minutes: at 15° C. as indicated.
The binding reactions were terminated at the specified times by rapid filtration on GF/B glass fibre filters (Whatmann, 1.0 μm pore size). Each filter was washed five times with 5 ml of PBS containing 1% BSA at 4° C. (15 s total time) using a Millipore filtration apparatus. Before the addition of membranes the filters were soaked for 24 hours in 5% polyethylenimine at 4° C. and washed with 5 ml of PBS containing 1% BSA immediately prior to use. […] Radioactivity was determined with a Beckmann γ-counter.
When 1n[(Beq - Bt)/(BoLo - Beq Bt)]is plotted as a function of time k1 can be determined from the slope by the following relation k1 =slope x [Beg/(Beg^2 - BoLo)](36) where Bo and Lo are the initial concentrations of receptor and ligand respectively. Bt is the concentration of receptor-ligand complex at time t and Beg is its concentration at equilibrium. Equation (1) takes into account the decrease in free ligand concentration that occurs during the binding reaction.
The first order rate constant of dissociation was determined from the slope of the line obtained by plotting ln(Bt/Beg) as a function of time.
The reactions were terminated and specific binding determined as described in "Experimental Procedures".

bombesin/GRP receptor [2] = molecular target: T2, bombesin/GRP receptor; details: previously published; cited from earlier work
vasopressin receptor [3] = molecular target: T3, vasopressin receptor (Mus musculus, UniProt Q62463); details: references 4,12,13; cited from earlier work
T3 construct: endogenous in cells; host or cells: Swiss 3T3 cells

Swiss 3T3 cells [4] = tested on: Swiss 3T3 cells
Swiss 3T3 cells [5] = details: references 4,12,13; cited from earlier work
Swiss 3T3 cells [6] = details: earlier patent application and references 10, 11; cited from earlier work
Swiss 3T3 cells [7] = type: cell-based, murine
[8] = tested on: small cell lung cancer (SCLC) cell lines; experiment: Growth in vitro of small cell lung cancer (SCLC) cell lines
Swiss 3T3 cells [9] = experiment: Vasopressin-induced DNA synthesis in Swiss 3T3 cells; type: cell-based, murine
[10] = tested on: bombesin/GRP, bradykinin and vasopressin receptors; experiment: Mitogenic responses elicited through bombesin/GRP, bradykinin and vasopressin receptors; type: cell-based, murine
Swiss 3T3 cells [11] = tested on: Swiss 3T3 cells; remark: listed apart in the source
Swiss 3T3 cells [12] = experiment: Mitogenesis stimulated by VIP in Swiss 3T3 cells; type: cell-based, murine
Swiss 3T3 cells [13] = experiment: EGF receptor transmodulation elicited by GRP in Swiss 3T3 cells; type: cell-based, murine; details: 1 min
bombesin/GRP receptor [14] = molecular target: T2, bombesin/GRP receptor; experiment: [125I]GRP binding to intact Swiss 3T3 cells; set-up: species or system murine; details: 37° C.
Swiss 3T3 cells [15] = experiment: Ca2+ mobilisation elicited by GRP in Swiss 3T3 cells; type: cell-based, murine; details: 5 secs
[16] = tested on: guinea pig pancreatic acini; details: read-out: 50% inhibition (IC50) of bombesin-stimulated amylase release; cited from earlier work
[17] = molecular target: T4, Mr 75,000-85,000 glycoprotein component of the receptor (Mus musculus, UniProt P21729); experiment: Cross-linking of [125I]GRP to the Mr 75,000-85,000 glycoprotein in intact Swiss 3T3 cells; type: binding, murine; details: 1 nM [125I]GRP, 24° C.
T4 construct: endogenous in cells; host or cells: Swiss 3T3 cells (intact, confluent and quiescent)
Experimental: Methods: Swiss 3T3 cells were maintained in culture and assays of DNA synthesis performed as previously described 2,4,6 In all the figures, values shown represent the mean of at least 2 determinations. […] After 10 mins they were washed twice with binding medium, then incubated at 24° C. in 1 ml containing […] ethylene glycol bis(succinimidylsuccinate) at pH 7.4. After 10 mins they were washed twice with cold binding medium and solubilised in 100 μl sample buffer^8,then immediately boiled for 5 mins, and electrophoresed on a 10% polyacrylamide gel.

vasopressin receptor [18] = molecular target: T3, vasopressin receptor; experiment: [3H]vasopressin binding to Swiss 3T3 cells; set-up: species or system murine
Swiss 3T3 cells [19] = experiment: Cytosolic Ca2+ concentration in Fura-2 loaded Swiss 3T3 cells; type: cell-based, murine; details: Fura-2 loaded cells
Swiss 3T3 cells [20] = experiment: Stimulation of DNA synthesis in Swiss 3T3 cells; type: cell-based, murine; details: in the presence of insulin

T2 sequence (P21729 whole entry): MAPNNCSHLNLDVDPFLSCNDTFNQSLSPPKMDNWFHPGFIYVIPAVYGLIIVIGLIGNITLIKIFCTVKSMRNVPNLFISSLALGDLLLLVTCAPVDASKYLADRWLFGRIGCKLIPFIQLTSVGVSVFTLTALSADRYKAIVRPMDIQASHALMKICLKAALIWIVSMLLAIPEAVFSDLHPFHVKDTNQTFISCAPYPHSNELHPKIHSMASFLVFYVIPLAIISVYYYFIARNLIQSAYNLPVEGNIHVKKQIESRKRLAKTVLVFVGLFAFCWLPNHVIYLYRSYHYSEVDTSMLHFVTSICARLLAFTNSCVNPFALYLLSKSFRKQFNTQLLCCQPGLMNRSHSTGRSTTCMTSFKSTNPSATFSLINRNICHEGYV
T3 sequence (Q62463 whole entry): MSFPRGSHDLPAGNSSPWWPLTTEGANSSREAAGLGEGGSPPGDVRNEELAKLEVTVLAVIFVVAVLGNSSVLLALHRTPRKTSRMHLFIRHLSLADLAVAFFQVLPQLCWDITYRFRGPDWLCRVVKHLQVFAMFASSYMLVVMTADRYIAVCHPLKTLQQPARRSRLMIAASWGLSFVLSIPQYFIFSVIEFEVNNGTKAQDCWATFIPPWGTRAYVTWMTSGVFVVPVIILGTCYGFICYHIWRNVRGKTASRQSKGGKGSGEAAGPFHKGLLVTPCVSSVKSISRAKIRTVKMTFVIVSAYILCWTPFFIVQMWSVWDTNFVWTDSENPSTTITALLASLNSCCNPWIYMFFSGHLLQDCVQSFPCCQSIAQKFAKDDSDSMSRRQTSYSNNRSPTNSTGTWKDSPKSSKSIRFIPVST
T1 sequence (P21729 whole entry): as the sequence (P21729 whole entry) above
T4 sequence (P21729 whole entry): as above

## CSCC[C@H](NC(=O)[C@H](CC(C)C)NC(=O)CNC(=O)[C@H](Cc1ccccc1)NC(=O)[C@H](Cc1ccccc1)NC(=O)[C@H](CCC(N)=O)NC(=O)[C@H](CCC(N)=O)NC(=O)[C@@H]1CCCN1C(=O)[C@H](CCCCN)NC(=O)[C@@H]1CCCN1C(=O)[C@@H](N)CCCNC(=N)N)C(N)=O [substance P, Arg-Pro-Lys-Pro-Gln-Gln-phe-phe-Gly-Leu-Met-NH2]
Mr 75,000-85,000 protein; addition at 1μM, 0.5 nM 125I-GRP, 37° C., 10 minutes, None 100
  remaining activity at 1 µM: 93 ± 2%
bombesin/GRP receptor [1]
  specific binding of 125I-GRP to membranes: 305 ± 4 fmole/mg protein
bombesin/GRP receptor [2]
  inhibition of binding of [125I]GRP to Swiss 3T3 cells: neither inhibits

## CC(C)C[C@H](NC(=O)[C@H](CC(C)C)NC(=O)[C@@H](Cc1c[nH]c2ccccc12)NC(=O)[C@H](Cc1ccccc1)NC(=O)[C@@H](Cc1c[nH]c2ccccc12)NC(=O)[C@H](CCC(N)=O)NC(=O)[C@@H](Cc1ccccc1)NC(=O)[C@@H]1CCCN1C(=O)[C@H](CCCCN)NC(=O)[C@@H]1CCCN1C(=O)[C@H](N)CCCNC(=N)N)C(N)=O [antagonist D, D-Arg-Pro-Lys-Pro-D-Phe-Gln-D-Trp-Phe-D-Trp-Leu-Leu-NH2] (H-[dR]PKP[dF]Q[dW]F[dW]LL-NH2)
Vasopressin receptor [3]
  inhibition of [3H]vasopressin binding: inhibit
Swiss 3T3 cells [4]; 20 μM antagonist D or 1 μm L.PSI.LB, GRP 3.6 nM, bombesin 1.2 nM, litorin 1.8 nM
  effect against DNA synthesis induced by various bombesin-like peptides: effective
Swiss 3T3 cells [5]
  inhibition of vasopressin-stimulated DNA synthesis: inhibit
Swiss 3T3 cells [6]
  potency as bombesin antagonist relative to antagonist A: 5-10 fold
Swiss 3T3 cells [7]; 20 μM antagonist D or 1 μm L.PSI.LB
  inhibition of mitogenesis stimulated by EGF, PDGF, phorbol dibutyrate, cholera toxin and 8-bromo-cAMP: Neither of them inhibited
[8]
  potency relative to Antagonist A in inhibiting growth of SCLC: 5-10 fold
Swiss 3T3 cells [9]; 1 uM L.PSI.LB or antagonist D
  inhibition of vasopressin-induced DNA synthesis: potent inhibitor
[10]
  potency relative to antagonist A against each mitogen: 5-10 fold
Swiss 3T3 cells [11]
  IC50: 8.3 µM
Swiss 3T3 cells [12]; VIP 3.0 nM, 20 μM antagonist D or 1 μm L.PSI.LB
  inhibition of mitogenesis stimulated by VIP: Neither antagonist D nor [Leu^13 -.PSI.(CH2 NH)Leu^14 ]bombesin inhibited

## CC(C)C[C@@H](CN[C@@H](CC(C)C)C(N)=O)NC(=O)[C@H](Cc1c[nH]cn1)NC(=O)CNC(=O)[C@@H](NC(=O)[C@H](C)NC(=O)[C@H](Cc1c[nH]c2ccccc12)NC(=O)[C@H](CCC(N)=O)NC(=O)[C@H](CC(N)=O)NC(=O)CNC(=O)[C@H](CC(C)C)NC(=O)[C@H](CCCNC(=N)N)NC(=O)[C@H](CCC(N)=O)NC(=O)[C@@H]1CCC(=O)N1)C(C)C [[Leu^13 -.PSI.(CH2 NH)Leu^14]bombesin] ([pGlu]QRLGNQWAVGH-X1; C-terminus assumed)
Swiss 3T3 cells [4]
  effect against DNA synthesis induced by various bombesin-like peptides: effective
  inhibition of GRP-induced DNA synthesis: strongly inhibited
Swiss 3T3 cells [13]
  block of EGF receptor transmodulation elicited by GRP: blocked
Swiss 3T3 cells [7]
  inhibition of mitogenesis stimulated by EGF, PDGF, phorbol dibutyrate, cholera toxin and 8-bromo-cAMP: Neither of them inhibited
bombesin/GRP receptor [14]
  inhibition of specific binding of [125I]GRP to the cells: inhibited
Swiss 3T3 cells [9]
  inhibition of vasopressin-induced DNA synthesis: no effect
Swiss 3T3 cells [15]
  block of Ca2+ mobilisation elicited by GRP: blocked
[16]
  IC50: 0.035 µM
Swiss 3T3 cells [11]; 1 μM L.PSI.LB
  effect on bradykinin-stimulated DNA synthesis: no effect
Swiss 3T3 cells [12]
  inhibition of mitogenesis stimulated by VIP: Neither antagonist D nor [Leu^13 -.PSI.(CH2 NH)Leu^14 ]bombesin inhibited
[17]
  block of cross-linking of [125I]GRP to the Mr 75,000-85,000 glycoprotein: blocked

## RPPGFSPFR [Bradykinin, bradykinin]
Mr 75,000-85,000 protein
  remaining activity at 1 µM: 95 ± 3%
bombesin/GRP receptor [1]
  specific binding of 125I-GRP to membranes: 302 ± 9 fmole/mg protein
Vasopressin receptor [18]
  inhibition of [3H]vasopressin binding: did not inhibit
bombesin/GRP receptor [14]
  inhibition of specific binding of [125I]GRP to the cells: did not inhibit
Swiss 3T3 cells [19]
  change in cytosolic Ca2+ concentration: rapid and transient increase
Swiss 3T3 cells [20]
  stimulation of DNA synthesis: maximal stimulation
